Laboratory results published in US4734411A, “Pyrrolizidine compounds, salts thereof, process for the preparation of same and pharmaceutical agents comprising same” (Sanwa Kagaku Kenkyusho Co., Ltd., priority 1985, dated 1988).
Where two headings read alike, the source gives them in different places.

Columns and labels:
[1] = test system: stress induced gastric ulcer; assay: Stress ulcer in rats (restraint and water immersion); type: in vivo, Wistar rats, male; conditions: for Inhibition (%): an hour before the restraint; for ED50: Rattus norvegicus
Method: Some pyrrolizidine compounds according to the invention were tested to evaluate their anti-ulcer activity in comparison with Pirenzepine and Cimetidine as controls, in accordance with the procedure proposed by Takagi et al.["Japan. J. Pharmacol." Vol. 18, page 9 (1968)].
Wistar rats of male sex were used, each having the body weight of 138 to 207 g. The animals were deprived of food for 24 hours prior to the test. They were immobilized in a restraint cage and immersed for 7 hours to the height of the xiphoid in a water bath kept at 23±1° C. After inflation with 10 ml of 1% formalin, the isolated stomach was opened along the greater curvature. The ulcer index was determined as the sum of the length (mm) of each erosion per rat. The compounds were administered orally an hour before the restraint.

[2] = test system: aspirin induced gastric ulcer; assay: Aspirin ulcer in rats (pylorus ligated); type: in vivo, Sprague-Dawley rats, male; conditions: for Inhibition (%): an hour before pylorus ligation and aspirin (100 mg/kg); for ED50: Rattus norvegicus
Method: Some pyrrolizidine compounds according to the invention were tested to evaluate their anti-ulcer activity on Aspirin ulcer, in comparison with Pirenzepine and Cimetidine as controls, in accordance with the procedure proposed by Okabe et al. ["Japan. J. Pharmacol." Vol. 24, page 363 (1974)].
Sprague-Dawley rats of male sex were used, each having the body weight of 146 to 210 g. The animals were deprived of food for 24 hours prior to the test. After an hour from oral administration of the compounds, the pylorus was ligated under anesthesia by ethyl ether and aspirin (100 mg/kg) suspended with 5% gum arabic was orally administered. After 7 hours from the administration, the stomach was isolated and inflated with 10 ml of 1% formalin. The ulcer index was determined as the sum of the length (mm) of each erosion per rat.
Results are shown in following Table 2 in terms of percent inhibition of anti-ulcer activity with respect to concentrations of 10 to 100 mg/kg.

[3] = test system: pupil diameter; assay: Influence on pupil diameter of mice (mydriatic effect); type: in vivo, ICR mice, male; conditions: oral, 30 minutes
Method: (Influence on pupil diameter of mice)
Some pyrrolizidine compounds according to the invention were tested to evaluate their influence on the pupil diameter of mice, in comparison with Pirenzepine and Atropine as controls.
The animals were deprived of food for 18 hours prior to the test. After 30 minutes from oral administration of the compounds, the pupil width was measured by a micrometer. Results are shown in following Table 3 in terms of ratio of pupil diameter and mydriatic effect.

[4] = Acute toxicity in mice; type: in vivo; conditions: mouse, in vivo; oral, 7 days, 5 animals, Litchfield-Wilcoxon's method
Method: (§1) Some pyrrolizidine compounds according to the invention were tested to evaluate their acute toxicity in mice.
(§2) ICR mice of male sex were used, each having the body weight of 24.8 to 30.0 g. The compounds were orally administered and general condition, behavior and mortality were observed daily throughout the experimental period of time (7 days). At end of the period, the surviving animals were sacrificed. Dead animals were sacrificed at the time when they were recognized to be dead. LD50 value was calculated in accordance with Litchfield-Wilcoxon's method.

[5] = test system: ICR mice; assay: Acute toxicity in mice; type: in vivo; conditions: oral, 7 days, of 5 animals; numeral in parenthesis
Method: as §1, §2

[6] = in words, related arts; cited from earlier work
[7] = oral, concentration of inhibitor which gives 50% inhibition, read-out: ED50
[8] = 30 mg/kg, Atropine (1 mg/kg) = 1.00

| Structure (SMILES) | Inhibition (%) ([1]; 10 mg/kg, oral) | Inhibition (%) ([1]; 100 mg/kg, oral) | ED50 [1, 7] [mg/kg] | Inhibition (%) ([2]; 10 mg/kg, oral) | Inhibition (%) ([2]; 100 mg/kg, oral) | ED50 [2, 7] [mg/kg] | Rate of pupil dia. (pre. = 1) ([3]; 30 mg/kg) | Ratio of mydriasis [3, 8] | LD50 at 168 h [4] [mg/kg] | number of dead animals [5] | Rate of pupil dia. (pre. = 1) ([3]; 1 mg/kg) | Ratio of mydriasis ([3]; 1 mg/kg) | side effects [6] | ED50 ([1]; po) [mg/kg] | ED50 ([2]; po) [mg/kg] |
| --- | --- | --- | --- | --- | --- | --- | --- | --- | --- | --- | --- | --- | --- | --- | --- |
| c1ccc2c(c1)Sc1ccccc1N2CCC12CCCN1CCC2 [Example 2, 10-[2-(7a-Pyrrolizidinyl)ethyl)phenothiazine] | 38.6 | 87.0 | 16.4 | 53.3 | 73.2 | < 10 | 4.6 | 0.98 | < 1000 | 4 |  |  |  |  |  |
| CN(C)S(=O)(=O)c1ccc2c(c1)N(CC13CCCN1CCC3)c1ccccc1S2 [Example 3, 2-(N,N-Dimethylsulfamoyl)-10-(7a-pyrrolizidinylmethyl)phenothiazine] | 49.4 | 65.6 | 11.8 | 19.7 | 36.5 | > 100 | 1.1 | 0.23 | > 1000 |  |  |  |  |  |  |
| c1ccc2c(c1)Sc1ccccc1N2CC12CCCN1CCC2 [Example 1, 10-(7a-Pyrrolizidinylmethyl)phenothiazine] | 55.4 | 92.5 | < 10 | 58.3 | 63.5 | < 10 | 2.7 | 0.57 | > 1000 |  |  |  |  |  |  |
| CN1[C@@H]2CC[C@H]1C[C@@H](OC(=O)C(CO)c1ccccc1)C2 (stereo partly drawn) [Atropine, reference compound] |  |  |  |  |  |  |  |  |  |  | 4.7 | 1.00 |  |  |  |
| O=C1Nc2cccnc2N(C(=O)C23CCCN2CCC3)c2ccccc21 [Example 5, 5,11-Dihydro-11-(pyrrolizidine-7a-carbonyl)-6H-pyrido(2,3-b)(1,4)-benzodiazepin-6-one] | 31.7 | 80.2 | 23.6 | 23.6 | 82.2 | 27.9 | 0.9 | 0.19 | > 1000 | 1 |  |  |  |  |  |
| CN1CCN(CC(=O)N2c3ccccc3C(=O)Nc3cccnc32)CC1 [Pirenzepine, reference compound] | 7.2 | 98.8 | 26.3 | 22.1 | 90.5 | 23.7 | 3.4 | 0.72 |  |  |  |  | side reactions due to supression of muscarinic receptor, although those are somewhat weak |  |  |
| CN/C(=N/CCSCc1nc[nH]c1C)NC#N [Cimetidine, reference compound] | 16.9 | 81.5 |  | 12.2 | 69.6 |  |  |  |  |  |  |  | side effects of forming a perforation in ulcer and strengthening a delayed hypersensitive reaction | 33.8 | 50.4 |
| C[Si](C)(C)c1cccc2c1N(CC13CCCN1CCC3)c1ccccc1S2 [Example 4, 10-(7a-Pyrrolizidinylmethyl)-1-trimethylsilylphenothiazine] |  |  |  | 17.7 | 65.6 |  |  |  | > 1000 |  |  |  |  |  | 60.4 |
